Source: US20130237602A1, “VALPROIC ACID DRUG DELIVERY SYSTEMS AND INTRAOCULAR THERAPEUTIC USES THEREOF” (ALLERGAN, INC., priority 2009, published 2013)

Columns and labels:
[1] = system: visual system; settings: systemic administration to mammals (Goto et al. 2003, rats); cited from earlier work
[2] = system: Sod1tm1Leb/J mouse retina; format: in vivo, mice; settings: 250 mg/kg IP once daily from three days before paraquat; 0.75 mM intravitreal paraquat; ERG days 1 and 7; n=4
Excerpt: In furtherance of the in vitro results of Example 1 we carried out an in vivo experiment examining the ability of valproic acid to protect against oxidative insult (oxidative stress) to mammalian retina. We used a murine model in which oxidative stress is induced by pre-dosing with intravitreal paraquat in Sod1^tm1Leb/J mouse model (as set forth in Dong A., et al., Superoxide Dismutase 1 Protects Retinal Cells From Oxidative Damage, J Cell Physio 208:516-526, 2006).
C57BL6 mice heterozygous from the SOD1 gene were obtained from Jackson labs (strain B6;129S7-Sod1tm1Leb/J). The mice were 3-4 months of age at the time of the experiment. […]
ERG recording were measured on dark adapted animals on days 1 and 7 post paraquat injection using an Espion ERG Diagnosys system and Burian-Allen electrodes, 3.0 mm diameter from LKC Technologies, Inc. For ERG recordings mice were anesthetized with ketamine (100 mg/kg) plus xylazine (50 mg/kg) administered IP and pupils dilated with 1% Akpentolate (cyclopentolate hydrochloride) and 10% AK-Dilate (phenylephrine hydrochloride). […] Scotopic ERGs were recorded using a 0.001, 0.01, and 1 cd·s/m2 flash as well as a 20 Hz flicker with the animal on a heating pad. A-wave, B-wave amplitudes were then calculated and statistically significant changes between valproic treated and non-treated animals determined using T test, n=4.

[3] = cited from earlier work

SMILES | effect on ERG a- and b-wave amplitudes and VEP [1] | effect on paraquat induced decrease in ERG B-wave amplitude [2] | water solubility [3]
CCCC(CCC)C(=O)O [valproic acid, 2-propylpentanoic acid] | suppress ERG a- and b-wave amplitudes as well as VEP | significantly inhibited paraquat induced decrease in B-wave amplitude | 
CCCC(CCC)C(=O)[O-].[Na+] [sodium valproate] |  |  | highly water soluble
